# From patent US20100204142A1, “USE OF THE PEPTIDE PHPFHLFVY (RENIN INHIBITOR) AS A THERAPEUTIC AGENT” (priority 2007, published 2010)
# Where no end group is shown, it is not given here.
# System: drug-resistant Mycobacterium tuberculosis
# Details: drug-resistant Mycobacterium tuberculosis growth; peptide 10 micrograms per ml; seven days
substance,measurement,value
PHPFHLFVY-OH [Renin inhibitor],% inhibition,0.0%
